Test results from paper PMC5904360, “Soluble N-Ethylmaleimide-Sensitive Factor Attachment Protein Receptor-Derived Peptides for Regulation of Mast Cell Degranulation” (Frontiers in Immunology, 2018).

Tests used:
[1] = target: T1, SN23-Syn4-Vp2 SNARE complex (Rattus norvegicus, UniProt O70377+P63045+Q08850); test: SNARE-driven membrane fusion (total lipid mixing) assay with proteoliposomes; format: biochemical; details: for inhibition of membrane fusion, peptide added after preincubation: peptide added after preincubation of T- and V-liposomes at 4°C overnight (partially zippered SNAREs) (Figure 4A); for inhibition of membrane fusion, peptide added before preincubation: peptide added before preincubation of T- and V-liposomes at 4°C overnight (Figure 4A)
T1 construct: Syn4 (amino acids 1–298); SNAP-23 (amino acids 1–210); full-length VAMP2 (VpF, amino acids 1–116); GST (N, cleaved yes); made in house; host or cells: Escherichia coli Rosetta(DE3)pLysS
Text: (§1) Total RNA was obtained from RBL-2H3 cells using TRIzol® Reagent (#15596026, Invitrogen, Carlsbad, CA, USA) and served as a template for cDNA synthesis with M-MLV reverse transcriptase (M1705, Promega, Madison, WI, USA) according to the manufacturer’s protocol. The cDNAs amplified for rat Syn4, SNAP-23, VAMP2, VAMP4, VAMP7, and VAMP8 using each primer pair ([4]), were cloned into the pGEX-4T 1 vector. The mast cell SNARE proteins [Syn4 (amino acids 1–298), SNAP-23 (amino acids 1–210), full-length VAMP2 (VpF, amino acids 1–116), VAMP4 (amino acids 1–141), and VAMP8 (amino acids 1–100)] were expressed in Escherichia coli Rosetta(DE3)pLysS (#70956, Novagen, Darmstadt, Germany) and purified as glutathione-S-transferase-tagged fusion proteins as reported previously ([8]).
(§2) To prepare the unilamellar liposomes, a 50-mM lipid mixture of palmitoyl-2-oleoylphosphatidylcholine (POPC) (#850457, Avanti Polar Lipids, Alabaster, AL, USA):1,2-dioleoyl-phosphatidylserine (DOPS) (#840035, Avanti Polar Lipids) at 65:35 mol% was dried in a glass tube under a gentle stream of nitrogen gas and then exposed to a vacuum overnight. The resultant lipid film was resuspended in dialysis buffer (25 mM HEPES and 100 mM KCl, pH 7.4) by vortexing, followed by an extrusion step with polycarbonate membrane filters having a pore size of 100 nm (#610005, Avanti Polar Lipids). To prepare proteoliposomes, binary T-SNAREs, which were pre-formed by mixing Syn4 and SNAP-23 at room temperature for 60 min, were incubated with 50 mM unilamellar liposomes for 15 min at the same temperature, resulting in a 50:1 lipid/protein molar ratio ([9]).
(§3) For the preparation of V-SNARE proteoliposomes, a 10-mM premixed lipid solution [POPC:DOPS:N-(7-nitro-2-1,3-benzoxadiazol-4-yl (NBD))-phosphatidylserine (#810198, Avanti Polar Lipids):[…] (#810150, Avanti Polar Lipids) = 62:35:1.5:1.5 (molar ratio)] was used for the preparation of fluorescent liposomes in the same manner as above. The prepared liposomes were then mixed with VAMP2 for 15 min at room temperature. The liposome/protein mixture was diluted twice to bring the concentration of n-octyl glucoside (O8001, Sigma-Aldrich) below the critical micelle concentration. After overnight dialysis against 1L dialysis buffer at 4°C to remove the detergent, SM-2 bio-beads (#1523920, Bio-Rad Laboratories, Hercules, CA, USA) were added to the sample to remove any remaining n-octyl glucoside. The solution was then centrifuged at 10,000 × g to remove the protein/lipid aggregates, and the final lipid concentrations of both the T- and V-liposomes were adjusted to 1 mM with a lipid-to-protein ratio of 50:1.
A total lipid mixing assay using the T- and V-liposomes was performed as described previously with minor modifications ([8]). […] The fusion was monitored using the dequenching of NBD fluorescence signal (excitation 465 nm/emission 530 nm). After at least 80 min of fusion, the maximum NBD signal was obtained by adding 0.1% Triton X-100™. All the lipid-mixing experiments were performed at 37°C.

RBL-2H3 mast cells [2] = test: Degranulation assay, β-hexosaminidase release; format: cell-based, rat; details: for inhibition of mast cell degranulation with versus without A23187 pretreatment: PTD-conjugated peptides, read-outs β-hexosaminidase and histamine (Figure 4B); for reduction of β-hexosaminidase release: 10 µM PTD-fused peptide without SLO (LY294002 as positive control), DNP-BSA stimulation, no A23187 pretreatment, three independent experiments (Figure 2A gray bars, 2C)
[3] = target: T2, SN23-Syn4-Vp8 SNARE complex (Rattus norvegicus, UniProt O70377+Q08850+Q9WUF4); test: SNARE-driven membrane fusion (total lipid mixing) assay with proteoliposomes; format: biochemical; details: for inhibition of membrane fusion, peptide added before preincubation: peptide added before preincubation of T- and V-liposomes at 4°C overnight (Figure 4A)
T2 construct: Syn4 (amino acids 1–298); SNAP-23 (amino acids 1–210); VAMP8 (amino acids 1–100); GST (N, cleaved yes); made in house; host or cells: Escherichia coli Rosetta(DE3)pLysS
T2 sequence (Q08850 1-298): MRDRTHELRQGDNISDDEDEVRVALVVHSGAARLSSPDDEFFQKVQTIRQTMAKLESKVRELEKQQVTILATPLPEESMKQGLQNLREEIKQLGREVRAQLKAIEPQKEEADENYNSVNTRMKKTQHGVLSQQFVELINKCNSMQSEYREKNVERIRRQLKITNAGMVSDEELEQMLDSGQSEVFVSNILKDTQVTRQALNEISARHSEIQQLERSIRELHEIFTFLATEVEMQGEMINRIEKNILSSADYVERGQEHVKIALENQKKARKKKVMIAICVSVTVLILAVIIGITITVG
T2 sequence (O70377 1-210): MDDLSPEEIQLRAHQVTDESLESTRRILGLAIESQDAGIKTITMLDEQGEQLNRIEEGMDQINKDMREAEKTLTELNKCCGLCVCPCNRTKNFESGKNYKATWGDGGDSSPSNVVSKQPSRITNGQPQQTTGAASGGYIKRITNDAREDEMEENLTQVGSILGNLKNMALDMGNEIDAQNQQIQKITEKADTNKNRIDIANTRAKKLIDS
T2 sequence (Q9WUF4 1-100): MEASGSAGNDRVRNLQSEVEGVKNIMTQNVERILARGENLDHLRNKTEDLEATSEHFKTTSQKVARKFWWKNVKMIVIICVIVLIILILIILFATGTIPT
Text: as §1, §2, §3
A total lipid mixing assay using the T- and V-liposomes was performed as described previously with minor modifications ([8]). Briefly, peptide inhibitors were applied to the T-vesicles at the indicated concentrations and then the T-vesicles were mixed with the V-vesicles in a 384-well plate for the initiation of fusion, with a T- to V-vesicle volume ratio of 9:1. The fusion was monitored using the dequenching of NBD fluorescence signal (excitation 465 nm/emission 530 nm). After at least 80 min of fusion, the maximum NBD signal was obtained by adding 0.1% Triton X-100™. All the lipid-mixing experiments were performed at 37°C.

[4] = target: T2, SN23-Syn4-Vp8 SNARE complex; test: as above; format: biochemical; details: peptide added after preincubation of T- and V-liposomes at 4°C overnight (partially zippered SNAREs) (Figure 4A)
RBL-2H3 mast cells [5] = test: Degranulation assay, histamine release (enzyme immunoassay); format: cell-based, rat; details: for inhibition of histamine release: PTD-conjugated peptide without SLO (LY294002 as positive control), DNP-IgE sensitized, DNP-BSA stimulation, no A23187 pretreatment, three independent experiments (Figure 2C)
NC/Nga mice = test: DNCB-induced atopic dermatitis-like skin lesions; format: in vivo, mouse
Text: Seven-week-old NC/Nga mice were purchased from the Shizuoka Laboratory Animal Center (Shizuoka, Japan) and allowed to adapt to the environment for a week prior to use. The procedures for the induction of atopic dermatitis-like symptoms in mice using 1-chloro-2,4-dinitro-benzene (DNCB) have been well described previously ([27]). Briefly, the dorsal hair of the mice was shaved 2 days before DNCB administration. For the induction of atopic dermatitis, 1% DNCB was applied to the dorsal skin of the mice twice weekly for 7 days and then 0.2% DNCB was applied thrice weekly for 21 days. The mice were divided into the following […] treatment groups (n = 10 per group): 0.3 and 3% Vp2N/day, 0.3 and 3% Vp8N/day, 0.1% dexamethasone/day, and vehicle only, dorsally administered from 9 to 13 weeks of age. As a negative control for atopic dermatitis, NC/Nga mice that were not treated with DNCB were maintained under pathogen-free conditions. Laboratory animal breeding management was based on the “Guide for the Care and Use of Laboratory Animals,” and all experiments were approved by the Institutional Animal Care and Use Committees of Gyeonggi Institute of Science & Technology.

SN23-Syn4-Vp2 complex = target: T3, SN23-Syn4-Vp2 complex (Rattus norvegicus, UniProt O70377+P63045+Q08850); test: Co-immunoprecipitation of SNARE complexes in activated RBL-2H3 cells, anti-SNAP-23 blot; format: cell-based; details: peptides added to the medium after A23187 pretreatment; IP of Vp2, blot anti-SNAP-23 (Figure 4C)
T3 construct: Lysates of RBL-2H3 cells; endogenous in cells; host or cells: RBL-2H3 (ATCC CRL-2256)
Description: Lysates of RBL-2H3 cells (0.5–1 × 10^6 cells), which were obtained by the addition of 1 mL lysis buffer (50 mM Tris–HCl, 150 mM NaCl, 1% Triton X-100™, 1 mM EDTA, pH 7.5) supplemented with a protease inhibitor cocktail (Calbiochem®, Merck Millipore, Billerica, MA, USA), were centrifuged at 13,000 g at 4°C to remove cell debris and precleared with 100 µL protein G Sepharose® (GE Healthcare) for 2 h at 4°C. The precleared lysates were incubated with antibodies against SNARE proteins (Syn4, SNAP-23, VAMP2, and VAMP8) for 2 h at 4°C for binding, and then the antibody–antigen complexes were precipitated by incubation with a protein G slurry overnight with constant shaking. After an extensive washing step with lysis buffer, an immunoblotting analysis was performed for the precipitates. The immunoprecipitated proteins and cell lysates were electrophoresed on 12% sodium dodecyl sulfate-polyacrylamide gel electrophoresis gels and then transferred to nitrocellulose blotting membranes (GE Healthcare). After blocking the membranes in TBST (10 mM Tris–HCl, 150 mM NaCl, and 0.05% Tween® 20, pH 8) containing 0.5% BSA and 5% skim milk for 1 h at room temperature, primary anti-SNAP-23 antibody (1:1,000 dilution) in TBST supplemented with 1% BSA and 0.01% sodium azide was added and incubated at 4°C overnight. The membranes were washed with TBST, treated with a horseradish peroxidase-conjugated secondary anti-mouse IgG antibody (A4416, Sigma-Aldrich), and visualized using enhanced chemiluminescence solution for the development of a luminescent signal.

[6] = inhibitor applied to T-vesicles, T:V 9:1, 37°C, NBD dequenching, Vp2S/Vp8S at 10 µM, three independent experiments (Figure 3B-D)
[7] = cells pretreated with A23187, sensitized with DNP-IgE, then PTD-conjugated peptide (Figure 4B)

T1 sequence (P63045 whole entry, one chain of several, the tested form may be a part): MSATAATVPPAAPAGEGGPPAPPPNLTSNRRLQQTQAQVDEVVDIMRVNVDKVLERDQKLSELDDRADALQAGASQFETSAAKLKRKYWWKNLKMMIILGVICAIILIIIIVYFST
T3 sequence (P63045 whole entry, one chain of several): as the sequence (P63045 whole entry, one chain of several, the tested form may be a part) above

Sequence	inhibition of membrane fusion, peptide added after preincubation [1]	inhibition of membrane fusion, peptide added before preincubation [1]	inhibition of mast cell degranulation with versus without A23187 pretreatment (RBL-2H3 mast cells [2])	inhibition of membrane fusion, peptide added before preincubation [3]	inhibition of membrane fusion, peptide added after preincubation [4]	inhibition of histamine release (RBL-2H3 mast cells [5])	reduction of β-hexosaminidase release (RBL-2H3 mast cells [2])	other results
DQINKDMREAEKTLTEL [SN23C, 17-mer peptide, C-terminal region of SNAP-23 SNARE motif SN23]	did not inhibit membrane fusion regardless of preincubation	did not inhibit membrane fusion regardless of preincubation	did not inhibit degranulation regardless of whether the pretreatment with A23187 was performed	did not inhibit membrane fusion regardless of preincubation	did not inhibit membrane fusion regardless of preincubation	–	–	–
EHFKTTSQKVARKFWWK [Vp8C, 17-mer peptide, C-terminal region of VAMP8 SNARE motif]	did not inhibit membrane fusion regardless of preincubation	did not inhibit membrane fusion regardless of preincubation	did not inhibit degranulation regardless of whether the pretreatment with A23187 was performed	did not inhibit membrane fusion regardless of preincubation	did not inhibit membrane fusion regardless of preincubation	–	–	–
KIKHVQNQVDEVIDVMQ [Vp4N, 17-mer peptide, N-terminal region of VAMP4 SNARE motif]	–	–	–	–	–	0–20%	0–20%	–
QSLDRVTETQAQVDELK [Vp7N, 17-mer peptide, N-terminal region of VAMP7 SNARE motif]	–	–	–	–	–	0–20%	0–20%	–
RGENLDHLRNKTEDLEA [Vp8M, 17-mer peptide, middle region of VAMP8 SNARE motif]	–	–	–	–	–	–	–	inhibition of membrane fusion (lipid mixing) [3, 6]: specific to the SN23-Syn4-Vp8 complex
RRLQQTQAQVDEVVDIM [Vp2N, 17-mer peptide, N-terminal region of VAMP2 SNARE motif]	inhibitory activities significantly diminished	inhibited the membrane fusion driven only by their cognate SNARE complexes	inhibited mast cell degranulation more efficiently than without pretreatment	–	–	43%	did not inhibit	inhibition of membrane fusion (lipid mixing) [1, 6]: efficiently inhibited; epidermal thickness (NC/Nga mice; 0.3 and 3% peptide/day dorsally for 4 weeks, n = 10 per group, versus DNCB/vehicle-treated group (Figure 5C)): significantly reduced; atopic dermatitis features (acanthosis, hypergranulosis, hyperkeratosis) in hematoxylin and eosin-stained sections (NC/Nga mice; 0.3 and 3% peptide/day dorsally, 9 to 13 weeks of age, n = 10 per group, compared with 0.1% dexamethasone/day group (Figure 5B)): clearly alleviated to a similar extent; ear thickness (NC/Nga mice; 0.3 and 3% peptide/day or 0.1% dexamethasone/day for 4 weeks, n = 10 per group (Figure 5D)): reduced; inhibition of histamine release after A23187 pretreatment (RBL-2H3 mast cells [5]; [7]): dramatically reduced; SNARE complex formation in cells (amount of SN23-Syn4-Vp2 complex) (SN23-Syn4-Vp2 complex): reduced; inhibition of β-hexosaminidase release after A23187 pretreatment (RBL-2H3 mast cells [2]; [7]): did not inhibit
